Experimental data: paper PMC5007466, “VCP recruitment to mitochondria causes mitophagy impairment and neurodegeneration in models of Huntington's disease” (Nature Communications, 2016)

Assays:
[1] = tested on: HdhQ111 / HdhQ7 mouse striatal cells; assay: Mitochondrial membrane potential (TMRM), mouse striatal cells; format: cell-based
Description: Immortalized striatal cell lines HdhQ111 mutant and HdhQ7 wt cells were obtained from the CHDI Foundation. Cells were cultured in DMEM supplemented with 10% FBS, 100 μg/ml penicillin, 100 μg ml^−1 streptomycin, and 400 μg ml^−1 G418. Cells were grown at 33 °C in a 5% CO2 incubator. Cells within 14 passages were used in all experiments.
For silencing Htt and VCP in HD striatal cells, control siRNA, mouse Htt and mouse VCP siRNA were purchased from Thermo Fisher Scientific. HdhQ7 and HdhQ111 cells were transfected either with control siRNA, or Htt or VCP siRNA using TransIT-TKO Transfection Reagent (Mirus Bio, LLC), according to the manufacturer's instructions. The sequences for the siRNAs used in this study are as follows: mouse Htt, 5′-[…]-3′; Mouse VCP, 5′-GAGAGCAACCUUCGUAAG-3′; control non-targeting siRNA, 5′-TTCTCCGAACGTGTCACGT-3′.
To determine mitochondrial mass in cultures, cells were stained with antibodies against Tom20 or stained with Mitotracker green. The fluorescent density of Tom20 (1:500) or mitotracker green was quantitated using NIH Image J software. To measure the membrane potential of mitochondria in cultures, cells were incubated with 0.25 μM tetra-methyl rhodamine (Invitrogen Life Science) for 20 min at 37 °C. To determine lysosomal activity, cells were incubated with Lyso-ID Red dye (Enzo Life Science) for 30 min at 37 °C. The images were visualized by microscope and quantitation of the density of red fluorescence was carried out using NIH ImageJ software. For immunocytochemistry study, at least 100 cells per group were counted and quantitated by an observer blind to experimental conditions.

C57Black mice [2] = assay: Blood biochemistry of naive mice; format: in vivo, mouse; conditions: 3 mg/kg/day, 4 weeks
Description: (§1) Supplementary Figure 8 : Toxicity analysis of HV -3in naïve mice .
We performed a toxicity analysis of HV-3 in mice. Six -week-old C57Black mice were treated with saline or peptide HV-3 at 3mg/kg/day by Alzet pump implantation. After 4- week treatment, the plasma, blood and whole mouse bodies of mice were collected. Examination on blood chemistry (Supplementary Table 1), hematology (Supplementary Table 2) and general necropsy of mice were performed at the Animal Diagnostic Laboratory at Stanford University. The experimenter who conducted the analysis was blind to the treatment groups. Automated hematology was performed on the Sysmex XT-2000iV analyzer system. Blood smears were made for all full CBC samples and reviewed by a medical technologist. Manual differentials were performed as indicated by species and automated analysis. Chemistry analysis was performed on the Siemens Dimension Xpand analyzer. […]
Student’s t test. Four-week sustained treatment with HV-3 by pump implantation had no effects on blood chemistry (Supplementary Table 1), hematology (Supplementary Table 2), and gross necropsy of naïve mice when compared to mice treated with saline. A four-week treatment with HV-3 had […] on immuno-density of CD3, a marker of T-cell for adaptive immune response, in the brains and spleens of naïve mice (a). Treatment with HV-3 had no effects on the size and weight of the spleens (b). […]
Table 1: Effects of 4-w eek treatment w ith HV-3 on blood biochemistry of naïve mice […]
M ean SD M ean SD p-value unit n

C57Black mice [3] = assay: Toxicity analysis in naive mice; format: in vivo, mouse
Description: as §1
We performed a toxicity analysis of HV-3 in mice. Six -week-old C57Black mice were treated with saline or peptide HV-3 at 3mg/kg/day by Alzet pump implantation. After 4- week treatment, the plasma, blood and whole mouse bodies of mice were collected. Examination on blood chemistry (Supplementary Table 1), hematology (Supplementary Table 2) and general necropsy of mice were performed at the Animal Diagnostic Laboratory at Stanford University. The experimenter who conducted the analysis was blind to the treatment groups. Automated hematology was performed on the Sysmex XT-2000iV analyzer system. Blood smears were made for all full CBC samples and reviewed by a medical technologist. Manual differentials were performed as indicated by species and automated analysis. Chemistry analysis was performed on the Siemens Dimension Xpand analyzer.
(a) Frozen tissue sections of brain and spleen were stained with anti-CD3 antibody by immunohistochemistry. There is no observed difference in the immuno-density of CD3 between saline-and HV-3- treated groups. Scale bar: 100 µm. (b) The size and weight of spleens in mice treated with saline or peptide HV-3 were compared. Left: the ratio of spleen weight to body weight was calculated and expressed as mean ± SEM of five mice in each group. Right: the images of spleens of mice treated with saline or peptide HV-3. There is no observed difference in the size of the spleens. Paired Student’s t test. Four-week sustained treatment with HV-3 by pump implantation had no effects on blood chemistry (Supplementary Table 1), hematology (Supplementary Table 2), and gross necropsy of naïve mice when compared to mice treated with saline. A four-week treatment with HV-3 had […] on immuno-density of CD3, a marker of T-cell for adaptive immune response, in the brains and spleens of naïve mice (a). Treatment with HV-3 had no effects on the size and weight of the spleens (b). […]

[4] = 3 mg/kg/day, 4 weeks, versus saline

For `CSCC[C@H](NC(=O)[C@@H](NC(=O)[C@H](CC(C)C)NC(=O)[C@@H](NC(=O)[C@H](Cc1c[nH]cn1)NC(=O)CCCCCNC(=O)[C@H](CCCNC(=N)N)NC(=O)[C@H](CCCNC(=N)N)NC(=O)[C@H](CCCNC(=N)N)NC(=O)[C@H](CCC(N)=O)NC(=O)[C@H](CCCNC(=N)N)NC(=O)[C@H](CCCNC(=N)N)NC(=O)[C@H](CCCCN)NC(=O)[C@H](CCCCN)NC(=O)[C@H](CCCNC(=N)N)NC(=O)CNC(=O)[C@@H](N)Cc1ccc(O)cc1)C(C)C)C(C)C)C(=O)N[C@@H](CS)C(=O)N[C@@H](C)C(=O)N[C@H](C(N)=O)[C@@H](C)O` [HV-3], which mitochondrial membrane potential ([1]; HdhQ111 cells, HV-3 3 uM/day for 3 days versus TAT) is on record?
The mitochondrial membrane potential was “markedly improved the mitochondrial membrane potential”.

And the “mitochondrial membrane potential in presence of VCP siRNA” value ([1]; HdhQ111 cells, HV-3 + VCP siRNA)?
The value was “no additional protection on the MMP”.

And the “mitochondrial membrane potential, wt” value ([1]; wt counterparts of the HD models)?
Its value is “only minor effects”.

What about the ALT (C57Black mice [2]; mean, n = 4/group) of the same compound?
Its ALT is 71.00 U/L.

What about the AST (C57Black mice [2]; mean, n = 4/group) of the same compound?
Its AST is 237.25 U/L.

What about the Albumin (C57Black mice [2]; mean, n = 4/group) of the same compound?
The Albumin was 2.95 g/dL.

What about the “Alkaline Phosphatase” value (C57Black mice [2]; mean, n = 4/group) of the same compound?
The value was 108.00 IU/L.

And the “Anion Gap” value (C57Black mice [2]; mean, n = 4/group)?
Its value is 33.08 mmol/L.

What about the BUN (C57Black mice [2]; mean, n = 4/group) of the same compound?
Its BUN is 27.50 mg/dL.

And the “Carbon Dioxide” value (C57Black mice [2]; mean, n = 4/group)?
The value was 16.45 mmol/L.

What about the Chloride (C57Black mice [2]; mean, n = 4/group) of the same compound?
The Chloride was 109.00 mmol/L.

And the Creatinine (C57Black mice [2]; mean, n = 4/group)?
Its Creatinine is 0.40 mg/dL.

And the Globulin (C57Black mice [2]; mean, n = 4/group)?
Its Globulin is 2.20.

What about the Glucose (C57Black mice [2]; mean, n = 4/group) of the same compound?
The Glucose was 312.25 mg/dL.

And the “Na/K Ratio” value (C57Black mice [2]; mean, n = 4/group)?
Its value is 20.96.

What about the Phosphorus (C57Black mice [2]; mean, n = 4/group) of the same compound?
The Phosphorus was 8.45 mg/dL.

And the Potassium (C57Black mice [2]; mean, n = 4/group)?
Its Potassium is 7.28 mmol/L.

What about the Sodium (C57Black mice [2]; mean, n = 4/group) of the same compound?
The Sodium was 151.25 mmol/L.

What about the T.Protein (C57Black mice [2]; mean, n = 4/group) of the same compound?
The T.Protein was 5.15 g/dL.

What about the “Total Bilirubin” value (C57Black mice [2]; mean, n = 4/group) of the same compound?
Its value is 0.13 mg/dL.

What about the Calcium (C57Black mice [2]; mean, n = 4/group, p 0.04 versus saline) of the same compound?
The Calcium was 9.78 mg/dL.

And the “blood chemistry (overall)” value (C57Black mice [2]; versus saline)?
Its value is “no effects”.

What about the toxicity (C57Black mice [3]; 3 mg kg^−1 per day, 4-week Alzet pump) of the same compound?
Its toxicity is “not toxic to naive mice”.

And the “CD3 immunodensity in brain and spleen” value (C57Black mice [3]; [4])?
Its value is “no significant effects on the immunodensity of CD3”.

And the gross necropsy (C57Black mice [3]; [4])?
Its gross necropsy is “no effects”.

What about the “size and weight of spleens” value (C57Black mice [3]; 3 mg/kg/day, 4 weeks, versus saline, n = 5) of the same compound?
Its value is “no obvious effects on the size and weight of the spleens”.
